Reference: patent US20230241188A1 (priority 2020, published 2023)
Where two headings read alike, the source gives them in different places.

Tests used:
[1] = target: SARS-CoV-2 (2019-nCoV) Envelope Recombinant Protein (Severe acute respiratory syndrome coronavirus 2, UniProt P0DTC4); format: biochemical
[2] = target: Recombinant SARS-CoV-2 spike protein (Severe acute respiratory syndrome coronavirus 2, UniProt P0DTC2); format: biochemical
envelope protein = envelope protein (Severe acute respiratory syndrome coronavirus 2, UniProt P0DTC4); format: biochemical, SARS-CoV-2
[3] = test system: SARS-COV-2 R209112 strain; assay: SARS-CoV-2 inactivation test, Vero cells, optical microscope observation; format: cell-based
[4] = test system: SARS-COV-2 R209112 strain; format: cell-based
[5] = test system: wild-type (WT) SARS-CoV-2 strain (EPI_ISL_578176); format: cell-based
[6] = test system: SARS-COV-2 R209112 strain

envelope protein, sequence (P0DTC4 whole entry): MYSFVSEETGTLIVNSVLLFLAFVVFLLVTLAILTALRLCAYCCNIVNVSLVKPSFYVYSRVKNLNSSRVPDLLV
SARS-CoV-2 (2019-nCoV) Envelope Recombinant Protein, sequence (P0DTC4 whole entry): as above

`CC(=O)N[C@@H](CS)C(=O)O` [Acetylcysteine, acetylcysteine] was tested, and the “envelope protein band on SDS-PAGE gel” value [1] was “did not disintegrate the protein”, the “comparative reduction of disulphide bonds, DTT alone vs DTT with Acetylcysteine (slope ratio)” value [2] was 42% and the “disulphide linkages reduced by Acetylcysteine” value [2] was 58%. For the same compound, the “differential assay between Acetylcysteine and DTT (slope ratio)” value (envelope protein) was 60%, the “disulphide bonds reduced by Acetylcysteine before the addition of DTT” value (envelope protein) was 40% and the “optical microscope observation of SARS-CoV-2 infection, V1” value [3] was “+”. For the same compound, the “optical microscope observation of SARS-CoV-2 infection, V2” value [3] was “+”, the “optical microscope observation of SARS-CoV-2 infection, V3” value [3] was “- and +” and the “optical microscope observation of SARS-CoV-2 infection, V4” value [3] was “-”. For the same compound, the “optical microscope observation of SARS-CoV-2 infection, V5” value [3] was “-”, the “therapeutic effect (cytopathic effect at 5 days), in words” value [3] was “did not show any therapeutic effect” and the “effect (cytopathic effect at 7 days), in words” value [4] was “did not show any effect”. For the same compound, the “optical microscope observation of SARS-CoV-2 infection, V1” value [4] was “+”, the “optical microscope observation of SARS-CoV-2 infection, V2” value [4] was “+” and the “optical microscope observation of SARS-CoV-2 infection, V3” value [4] was “-”. The “optical microscope observation of SARS-CoV-2 infection, V4” value [4] was “-”, the “optical microscope observation of SARS-CoV-2 infection, V5” value [4] was “-” and the “viral inhibition (CPE, optical and Neutral Red cell staining)” value [5] was “no viral inhibition”. For the same compound, the “viral inactivation test (RNA extraction), Δlog, V1” value [6] was 0.088 log, the “viral inactivation test (RNA extraction), Δlog, V2” value [6] was 0.224 log and the “TOXICITY (optical microscope observation)” value (from here on “TOXICITY”) (Vero cells) was “Nil”. For the same compound, the “TOXICITY” value (BGM cells) was “Nil”.
Bromelain was tested, and the “TOXICITY” value (Vero cells) was “Nil” and the “TOXICITY” value (BGM cells) was “Nil”.
